This passage reports metabolised results from PMC11904604, “MRM-based LC-MS method for accurate C-peptide quantitation” (Journal of Mass Spectrometry and Advances in the Clinical …, 2025).

This data set can be described thus: in vitro. The settings on record: human, serum.

Consider `CC(C)C[C@H](NC(=O)[C@H](C)NC(=O)[C@H](CC(C)C)NC(=O)[C@@H]1CCCN1C(=O)[C@H](CCC(N)=O)NC(=O)[C@H](CC(C)C)NC(=O)[C@H](CO)NC(=O)CNC(=O)[C@H](C)NC(=O)CNC(=O)[C@@H]1CCCN1C(=O)CNC(=O)CNC(=O)CNC(=O)[C@H](CC(C)C)NC(=O)[C@H](CCC(=O)O)NC(=O)[C@@H](NC(=O)[C@H](CCC(N)=O)NC(=O)CNC(=O)[C@@H](NC(=O)[C@H](CCC(N)=O)NC(=O)[C@H](CC(C)C)NC(=O)[C@H](CC(=O)O)NC(=O)[C@H](CCC(=O)O)NC(=O)[C@H](C)NC(=O)[C@@H](N)CCC(=O)O)C(C)C)C(C)C)C(=O)N[C@@H](CCC(=O)O)C(=O)NCC(=O)N[C@@H](CO)C(=O)N[C@@H](CC(C)C)C(=O)N[C@@H](CCC(N)=O)C(=O)O` [C-peptide], for which the metabolised at 48 h, 0.53 nmol/L is 2.4% and the metabolised at 48 h, 2.88 nmol/L was found to be 6.3%.
